Test results as given in publication PMC2213567 (The Journal of General Physiology, 2008).

Target: α4β2δ GABAAR (Mus musculus (alpha4); Rattus norvegicus (beta2); Homo sapiens (delta), UniProt P63138+Q9D6F4)
Experiment: ultrafast agonist application, outside-out macropatch
Assay type: cell-based

Chain of α4β2δ GABAAR (Q9D6F4 36-552): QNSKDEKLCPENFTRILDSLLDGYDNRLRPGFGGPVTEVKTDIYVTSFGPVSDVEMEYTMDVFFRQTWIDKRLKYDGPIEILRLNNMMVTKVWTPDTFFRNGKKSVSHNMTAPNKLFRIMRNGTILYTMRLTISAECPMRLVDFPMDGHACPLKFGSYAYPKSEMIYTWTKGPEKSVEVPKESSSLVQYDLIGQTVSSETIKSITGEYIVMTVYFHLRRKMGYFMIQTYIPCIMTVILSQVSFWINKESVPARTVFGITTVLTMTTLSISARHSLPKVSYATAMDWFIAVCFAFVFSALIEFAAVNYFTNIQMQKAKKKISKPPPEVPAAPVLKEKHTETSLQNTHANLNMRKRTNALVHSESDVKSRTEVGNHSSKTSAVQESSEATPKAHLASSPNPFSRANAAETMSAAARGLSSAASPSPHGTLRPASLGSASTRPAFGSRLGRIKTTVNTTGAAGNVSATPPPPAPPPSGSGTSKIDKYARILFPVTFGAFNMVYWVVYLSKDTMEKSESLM
Chain of α4β2δ GABAAR (P63138 26-474): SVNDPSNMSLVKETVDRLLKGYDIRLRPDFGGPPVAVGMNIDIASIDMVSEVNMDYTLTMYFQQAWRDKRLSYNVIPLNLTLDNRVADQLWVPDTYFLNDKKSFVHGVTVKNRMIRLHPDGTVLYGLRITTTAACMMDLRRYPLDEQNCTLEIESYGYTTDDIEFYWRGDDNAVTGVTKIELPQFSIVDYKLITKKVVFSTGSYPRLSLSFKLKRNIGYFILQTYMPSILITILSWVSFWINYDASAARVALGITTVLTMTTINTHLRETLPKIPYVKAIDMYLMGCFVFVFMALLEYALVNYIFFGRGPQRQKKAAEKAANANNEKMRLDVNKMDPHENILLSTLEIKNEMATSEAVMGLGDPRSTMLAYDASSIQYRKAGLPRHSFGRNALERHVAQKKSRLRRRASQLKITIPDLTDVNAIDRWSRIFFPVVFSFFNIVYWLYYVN
Chain of α4β2δ GABAAR (O14764 25-452 partner): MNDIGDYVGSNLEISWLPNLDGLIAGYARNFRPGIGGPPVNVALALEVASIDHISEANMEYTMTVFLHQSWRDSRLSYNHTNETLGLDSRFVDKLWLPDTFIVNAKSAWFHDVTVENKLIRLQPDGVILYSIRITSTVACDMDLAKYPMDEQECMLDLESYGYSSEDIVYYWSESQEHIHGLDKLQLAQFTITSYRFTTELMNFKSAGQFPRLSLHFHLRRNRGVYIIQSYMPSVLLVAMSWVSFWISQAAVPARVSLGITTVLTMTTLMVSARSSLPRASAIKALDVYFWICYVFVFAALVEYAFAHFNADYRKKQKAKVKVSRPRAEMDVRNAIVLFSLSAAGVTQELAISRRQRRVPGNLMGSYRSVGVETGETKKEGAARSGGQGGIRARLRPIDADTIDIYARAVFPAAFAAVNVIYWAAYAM

Work on `Oc1noc2c1CCNC2` [THIP, 4,5,6,7-tetrahydroisoxazolo[5,4-c]pyridin-3(2H)-one] yielded a Kd of 683 µM.
